Source: BindingDB's records for doi:10.1021/jm00051a016 (University of Michigan, 1995)

Tests used:
Mu-type opioid receptor [1] = molecular target: T1, Mu-type opioid receptor (Cavia porcellus, UniProt P97266); test: Agonist activity was assessed in an guinea pig ileum (GPI) smooth muscle bioassay
Mu-type opioid receptor [2] = molecular target: T1, Mu-type opioid receptor; test: Binding affinity against mu opioid receptor using [3H]DAMGO in guinea pig ileum

T1 sequence (P97266 whole entry): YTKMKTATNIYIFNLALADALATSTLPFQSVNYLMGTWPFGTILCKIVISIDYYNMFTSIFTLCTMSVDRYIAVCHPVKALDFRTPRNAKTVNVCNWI

## CN1C(=O)[C@H](CS)N(C(=O)[C@@H](N)Cc2ccc(O)cc2)C(=O)[C@@H](C(C)(C)S)NC(=O)[C@@H]1Cc1ccccc1 [4-[2-Amino-3-(4-hydroxy-phenyl)-propionyl]-9-benzyl-3-mercaptomethyl-6-(1-mercapto-1-methyl-ethyl)-1-methyl-[1,4,7]triazonane-2,5,8-trione]
Mu-type opioid receptor [1]
  IC50: > 30 µM
Mu-type opioid receptor [2]
  Ki: > 10 µM
